From patent US6048856A, “Heterocyclic compounds” (Novo Nordisk A/S, priority 1997, dated 2000)
Counter-ions that a name gives are not always drawn.

Tested on: histamine induced paw oedema
Experiment: Histamine induced paw oedema test in rats
Type: in vivo, male Sprague-Dawley rats
Conditions: Rattus norvegicus, ip; intraperitoneal, 15 minutes before anaesthetics; paw swelling 20 minutes after histamine 50 microliter
Protocol: Compounds of formula I may be used to treat all painful, hyperalgesic and/or inflammatory conditions in which C-fibres play a pathophysiological role by eliciting neurogenic pain or inflammation, i.e.:
I. Histamine Induced Paw Oedema
The rat histamine paw oedema test was performed essentially as described by Amann et al. (Europ. J. Pharmacol. 279, 227-231, 1995). In brief 250-300 g male Sprague-Dawley rats were anaesthetized with pentobarbital sodium, and placed on a 32 degree Celsius heated table. Ten minutes later histamine (50 micoliter, 3 mg/ml) was injected in the right hind paw and 20 minutes hereafter the paw swelling was determined by water plethysmography (Ugo Basile). Test compounds were administered intraperitoneally at 15 minutes before the anaesthetics.
Values for inhibition of histamine induced oedema response for some representative compounds are recorded in table 1.

SMILES: N#CC(c1ccccc1)C1CCN(CCC=C2c3ccccc3CCc3ccccc32)CC1 (stereo not shown) [Example 5, 2-(1-(3-(10,11-Dihydro-5H-dibenzo[a,d]cyclohepten-5-ylidene)-1-propyl)-4-piperidyl)-2-phenylacetonitrile hydrochloride]
- inhibition at 1 mg/kg: 30%
